Assay results published in PubChem BioAssay AID248 (DTP/NCI, 2004).
Several values for one entry are separate records, joined by “and”; a condition that tells them apart may be missing. Equal values may be shown once. Toxic doses and inconclusive results are not listed. Cut-off read from the data, not from the text of the source: active = T/C of 150% or more; inactive = T/C below 125%.

Tested on: L1210 leukemia ip in BDF1 mice, survival T/C
Test: NCI In Vivo Anticancer Drug Screen. Data for tumor model L1210 Leukemia (intraperitoneal) in B6D2F1 (BDF1) mice
Conditions: endpoint: mean survival time, higher = longer survival
Outline: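 Value reflects the ratio of survival in compound-treated mice to survival in vehicle-treated controls, with both groups carrying the same transplanted tumor.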

[1] = dose: 200.0 mg/kg/injection, schedule: Q01DX009 (ip), vehicle: Klucel (hydroxypropylcellulose) (HPC)
[2] = dose: 400.0 mg/kg/injection, schedule: Q01DX009 (ip), vehicle: Klucel (hydroxypropylcellulose) (HPC)
[3] = dose: 100.0 mg/kg/injection, schedule: Q04DX003 (ip), vehicle: saline with Tween-80
[4] = dose: 200.0 mg/kg/injection, schedule: Q04DX003 (ip), vehicle: saline with Tween-80
[5] = dose: 400.0 mg/kg/injection, schedule: Q04DX003 (ip), vehicle: saline with Tween-80
[6] = dose: 100.0 mg/kg/injection, schedule: Q01DX009 (ip), vehicle: Klucel (hydroxypropylcellulose) (HPC)
[7] = dose: 100.0 mg/kg/injection, schedule: Q01DX009 (ip), vehicle: saline
[8] = dose: 200.0 mg/kg/injection, schedule: Q01DX009 (ip), vehicle: saline
[9] = dose: 100.0 mg/kg/injection, schedule: Q01DX009 (ip), vehicle: saline with Tween-80
[10] = dose: 200.0 mg/kg/injection, schedule: Q01DX009 (ip), vehicle: saline with Tween-80
[11] = dose: 400.0 mg/kg/injection, schedule: Q01DX009 (ip), vehicle: saline with Tween-80
[12] = dose: 100.0 mg/kg/injection, schedule: Q01DX001 (ip), vehicle: saline
[13] = dose: 200.0 mg/kg/injection, schedule: Q01DX001 (ip), vehicle: saline
[14] = dose: 200.0 mg/kg/injection, schedule: Q04DX003 (ip), vehicle: Klucel (hydroxypropylcellulose) (HPC)
[15] = dose: 100.0 mg/kg/injection, schedule: Q04DX002 (ip), vehicle: Klucel (hydroxypropylcellulose) (HPC)
[16] = dose: 200.0 mg/kg/injection, schedule: Q04DX002 (ip), vehicle: Klucel (hydroxypropylcellulose) (HPC)
[17] = dose: 25.0 mg/kg/injection, schedule: Q01DX009 (ip), vehicle: Klucel (hydroxypropylcellulose) (HPC)
[18] = dose: 50.0 mg/kg/injection, schedule: Q01DX009 (ip), vehicle: Klucel (hydroxypropylcellulose) (HPC)
[19] = dose: 100.0 mg/kg/injection, schedule: Q04DX003 (ip), vehicle: Klucel (hydroxypropylcellulose) (HPC)
[20] = dose: 50.0 mg/kg/injection, schedule: Q01DX001 (ip), vehicle: saline
[21] = dose: 400.0 mg/kg/injection, schedule: Q01DX001 (ip), vehicle: saline

Measured: T/C

N#CCCC(=O)c1ccccn1
inactive: [1] 100 % of control | [2] 93 % of control

ClCCN(CCCl)c1ccc(C=Nc2ccc(-n3ccnc3)cc2)c(Cl)c1
inactive: dose: 80.0 mg/kg/injection, schedule: Q04DX002 (ip), vehicle: Klucel (hydroxypropylcellulose) (HPC) 95 % of control | dose: 160.0 mg/kg/injection, schedule: Q04DX002 (ip), vehicle: Klucel (hydroxypropylcellulose) (HPC) 102 % of control | dose: 320.0 mg/kg/injection, schedule: Q04DX002 (ip), vehicle: Klucel (hydroxypropylcellulose) (HPC) 98 % of control

CCCc1ccccc1NC1=NCCO1
inactive: dose: 50.0 mg/kg/injection, schedule: Q04DX002 (ip), vehicle: saline with Tween-80 98 % of control | dose: 100.0 mg/kg/injection, schedule: Q04DX002 (ip), vehicle: saline with Tween-80 95 % of control | [3] 90 % of control | dose: 200.0 mg/kg/injection, schedule: Q04DX002 (ip), vehicle: saline with Tween-80 92 % of control | [4] 87 % of control | dose: 400.0 mg/kg/injection, schedule: Q04DX002 (ip), vehicle: saline with Tween-80 88 % of control | [5] 89 % of control

COc1cccc(NC(=O)c2cccc(C(=O)Nc3cccc(OC)c3)c2)c1
inactive: [6] 94 % of control | [1] 91 % of control | [2] 86 % of control

Nc1nc(N)c2nc3c(nc2n1)CN(c1ccc(C(=O)O)cc1)C3=O
inactive: [7] 104 % of control | [8] 89 % of control

NC(=NC1CCC(C2CCC(N)CC2)CC1)C(N)=NC1CCC(C2CCC(N)CC2)CC1 (configuration not stated)
inactive: [9] 98 % of control | [3] 100 % of control | [10] 98 % of control | [4] 91 % of control | [11] 98 % of control | [5] 95 % of control

CCCCC1(CCC)C(=O)NC(=O)NC1=O
inactive: dose: 75.0 mg/kg/injection, schedule: Q01DX001 (ip), vehicle: saline 102 % of control | dose: 150.0 mg/kg/injection, schedule: Q01DX001 (ip), vehicle: saline 96 % of control | dose: 300.0 mg/kg/injection, schedule: Q01DX001 (ip), vehicle: saline 95 % of control

O=C(O)c1cccnn1
inactive: [12] 104 % of control | [13] 97 % of control

O=C(CCCCC(=O)OCCBr)OCCBr
inactive: dose: 20.0 mg/kg/injection, schedule: Q04DX003 (ip), vehicle: Klucel (hydroxypropylcellulose) (HPC) 100 % of control | dose: 40.0 mg/kg/injection, schedule: Q04DX003 (ip), vehicle: Klucel (hydroxypropylcellulose) (HPC) 105 % of control | dose: 80.0 mg/kg/injection, schedule: Q04DX003 (ip), vehicle: Klucel (hydroxypropylcellulose) (HPC) 114 % of control | [14] 102 % of control

CC(=O)/C=C\c1ccc([N+](=O)[O-])o1
inactive: [15] 115 % of control | [16] 89 % of control

Cc1ccc(NC(=O)CCC(=O)O)cc1[N+](=O)[O-]
inactive: [6] 97 % of control | [1] 101 % of control | [2] 98 % of control

N#CC1(c2ccccc2)OC1(c1ccccc1)c1ccccc1 (configuration not stated)
inactive: [6] 89 % of control | [15] 88 % of control | [1] 91 % of control | [16] 92 % of control | [2] 88 % of control

C[N+]([O-])(CCC#N)CC(=O)O (configuration not stated)
inactive: [12] 97 % of control | [13] 101 % of control

Cc1cn(CCC(N)C(=O)O)c(=O)[nH]c1=O (configuration not stated)
inactive: [7] 103 % of control | dose: 100.0 mg/kg/injection, schedule: Q04DX002 (ip), vehicle: saline 106 % of control | [8] 117 % of control | dose: 200.0 mg/kg/injection, schedule: Q04DX002 (ip), vehicle: saline 89 % of control | dose: 400.0 mg/kg/injection, schedule: Q01DX009 (ip), vehicle: saline 95 % of control | dose: 400.0 mg/kg/injection, schedule: Q04DX002 (ip), vehicle: saline 113 % of control

CC(=O)OCC1OC(n2cnc3c(C)nc(F)nc32)C(OC(C)=O)C1OC(C)=O (configuration not stated)
inactive: dose: 50.0 mg/kg/injection, schedule: Q01DX001 (ip), vehicle: other 105 % of control | dose: 100.0 mg/kg/injection, schedule: Q01DX001 (ip), vehicle: other 113 % of control | dose: 200.0 mg/kg/injection, schedule: Q01DX001 (ip), vehicle: other 103 % of control | dose: 400.0 mg/kg/injection, schedule: Q01DX001 (ip), vehicle: other 108 % of control

C[C@]12CC[C@@H]3c4ccc(OCC(=O)O)cc4CC[C@H]3[C@@H]1CCC2=O
inactive: dose: 75.0 mg/kg/injection, schedule: Q01DX009 (ip), vehicle: Klucel (hydroxypropylcellulose) (HPC) 97 % of control | dose: 150.0 mg/kg/injection, schedule: Q01DX009 (ip), vehicle: Klucel (hydroxypropylcellulose) (HPC) 90 % of control

CCCCCCC(O)C/C=C/CCCCCCCC(=O)O (configuration not stated)
inactive: [15] 96 % of control | [16] 93 % of control | dose: 400.0 mg/kg/injection, schedule: Q04DX002 (ip), vehicle: Klucel (hydroxypropylcellulose) (HPC) 86 % of control

NNC(=O)c1ccccc1[N+](=O)[O-]
inactive: [17] 95 % of control | [18] 94 % of control | dose: 50.0 mg/kg/injection, schedule: Q04DX003 (ip), vehicle: Klucel (hydroxypropylcellulose) (HPC) 100 % of control | [6] 101 % of control | [19] 100 % of control

CCn1nnc2c(N(C)C)nc(N)nc21
inactive: [18] 93 % of control | [6] 95 % of control | [19] 93 % of control | [14] 92 % of control

Cn1c(=O)c2[nH]c(CC3CCCC3)nc2n(C)c1=O
inactive: [20] 104 % of control | [12] 104 % of control | [13] 101 % of control | [21] 95 % of control

C[Si](C)(CCCOCC1CO1)O[Si](C)(C)CCCOCC1CO1 (configuration not stated)
inactive: [9] 97 % of control | [3] 95 % of control | [10] 97 % of control | [4] 89 % of control | [11] 92 % of control | [5] 87 % of control

S=C(Nc1nccs1)Nc1nccs1
inactive: dose: 100.0 mg/kg/injection, schedule: Q01DX001 (ip), vehicle: Klucel (hydroxypropylcellulose) (HPC) 100 % of control | dose: 200.0 mg/kg/injection, schedule: Q01DX001 (ip), vehicle: Klucel (hydroxypropylcellulose) (HPC) 97 % of control | dose: 400.0 mg/kg/injection, schedule: Q01DX001 (ip), vehicle: Klucel (hydroxypropylcellulose) (HPC) 89 % of control

S=C(NCCN1CCCC1)Nc1ccccc1
inactive: [17] 119 % of control | [18] 104 % of control | [6] 97 % of control and 114 % of control

CC(=O)c1ccncc1
inactive: [20] 94 % of control | [12] 89 % of control | [13] 94 % of control | [21] 94 % of control

COc1ccc(COC2C(O)C(CO)OC2n2ccc(N)nc2=O)cc1 (configuration not stated)
inactive: dose: 12.5 mg/kg/injection, schedule: Q01DX005 (ip), vehicle: saline 103 % of control | dose: 25.0 mg/kg/injection, schedule: Q01DX005 (ip), vehicle: saline 100 % of control | dose: 50.0 mg/kg/injection, schedule: Q01DX005 (ip), vehicle: saline 94 % of control | dose: 100.0 mg/kg/injection, schedule: Q01DX005 (ip), vehicle: saline 107 % of control
